Laboratory results from PMC9741109, “Synthesis, In Silico and In Vivo Toxicity Assessment of Functionalized Pyridophenanthridinones via Sequential MW-Assisted Intramolecular Friedel-Crafts Alkylation and Direct C–H Arylation” (Molecules, 2022).
Values joined by “and” are separate entries in the source; they are usually repeats but may differ in a detail not shown here. Equal values may be shown once.

Tests used:
in vivo = conditions: wild-type, zebrafish (Danio rerio), in vivo
Text: (§1) The Zebrafish (Danio rerio) has been established as a modern experimental vertebrate model for assessing the toxicity of diverse synthetic and natural small molecules (SMs). […] Thus, these previously reported methodologies were adapted in our laboratory with slight modifications for the toxicological assessment of the selected pyridophenanthridin-6-one 4f and its corresponding precursors 6f–8f (Table 2).
(§2) Wild-type adult zebrafish of both sexes were separated in two tanks (30 L each), according to their gender, at 26 ± 2 °C under natural light-dark photoperiods. Fishes were fed twice daily, and the water quality was recorded weekly, in order to acclimate the fishes for at least two weeks before experiments begin. For the reproduction of the adult fishes, small breeding tanks were set up in the evening previous to the experiment, each containing three males and one female specimen. The tanks were isolated until the next morning when the lights switched on and the natural mating occurred, without any perturbation.
(§3) The adult fishes were returned to their corresponding tank and the embryos were collected, pooled, and washed with E3 medium and transferred into a 92 mm glass Petri dish. Further, the dead, delayed, malformed, and unfertilized embryos were identified under a dissecting microscope and removed by select aspiration with a pipette. This last procedure was repeated at 12 and 20 hpf in order to remove the unfit embryos. Throughout this period of time, the embryos were kept at 28 ± 2 °C in an incubator under natural light–dark photoperiods. The selected embryos of 24 hpf from the Petri dish were gently distributed into 96-well plates, placing a single embryo and 200 μL of E3 medium per well.
(§4) For this experiment, in total 72 embryos were required per sample in order to run three independent experiments in three different plates, and each compound was evaluated three times in the same plate, allowing the evaluation of four samples per plate. […] Each embryo was examined under a dissecting microscope and the statistical analysis was made using Regression Probit analysis with SPSS for windows version 19.0. Data are expressed as the standard error of the mean (SEM) of three different experiments in triplicate.

zebrafish embryos = assay: in vivo; conditions: toxicity scale class from zebrafish LC50 in mg/L
Text: as §1, §2, §3, §4

[1] = LC50, zebrafish embryos, Figure 5 toxicity scale
[2] = Zebrafish LC50, zebrafish embryos, 96 hpf, 72 h exposure, mean ± SEM

| Compound | LC50 (in vivo; [1]) | LC50 (in vivo; [2]) | Aquatic Animal Acute Toxicity (zebrafish embryos) | LC50 at 72 h (in vivo; [1]) | LC50 at 72 h (in vivo; Zebrafish LC50, zebrafish embryos, 96 hpf, 72 h exposure, mean ± SEM, footnote c) | LC50 at 72 h (in vivo; [2]) |
| --- | --- | --- | --- | --- | --- | --- |
| CCc1cc2c3c(c1)C(c1ccccc1)CC(=O)N3Cc1ccccc1-2 (stereo not shown) [4f] | 67.8 µM | 67.8 µM and 60.2 µg/mL | ST (slightly toxic 10–100 (ST)) | – | – | – |
| CCc1ccc2c(c1)C(c1ccccc1)CC(=O)N2Cc1ccccc1Br (stereo not shown) [6f] | – | 151 µM and 86.5 µg/mL | ST (slightly toxic 10–100 (ST)) | – | – | – |
| CCc1ccc(N(Cc2ccccc2Br)C(=O)/C=C/c2ccccc2)cc1 [7f] | 137 µM | 137 µM and 51.2 µg/mL | ST (slightly toxic 10–100 (ST)) | – | – | – |
| CCc1ccc(NC(=O)/C=C/c2ccccc2)cc1 [8f] | – | 221 µM and 43.9 µg/mL | ST (slightly toxic 10–100 (ST)) | – | – | – |
| COc1ccc(O)cc1C(C)(C)C [BHA 18, butylated hydroxyanisole] | 90.2 µM | 90.2 ± 1.15 µM | ST (slightly toxic 10–100 (ST)) | – | – | – |
| CC[C@@]1(O)C(=O)OCc2c1cc1n(c2=O)Cc2cc3ccccc3nc2-1 [Camptothecin 13, camptothecin] | – | – | T (super toxic 0–0.1 (T)) | 0.0038 µM | 0.00384 ± 0.00021 µM | – |
| C=CCc1ccc(O)c(OC)c1 [Eugenol 19, eugenol] | 114 µM | 114 µM and 18.7 µg/mL | ST (slightly toxic 10–100 (ST)) | – | – | – |
| CC(C)Cn1cnc2c(N)nc3ccccc3c21 [Imiquimod 14, imiquimod] | – | – | ST (slightly toxic 10–100 (ST)) | 351 µM | – | 351 µM and 84.3 µg/mL |
| CCCCCCCCCCC[C@@H](C[C@@H]1OC(=O)[C@H]1CCCCCC)OC(=O)[C@H](CC(C)C)NC=O [Orlistat 15, orlistat] | 86 µM | 87 µM and 43.1 µg/mL | ST (slightly toxic 10–100 (ST)) | – | – | – |
